For two molecules, residual activity and inhibition results are on record in ChEMBL document CHEMBL4507263, “Data for DCP probe BAY-474” (2021).

Series [1] deals with Mitogen-activated protein kinase kinase kinase kinase 2 (Homo sapiens) (UniProt Q12851). The conditions noted are these: Compound concentration 1000.0 nM.
Series [2] deals with Myosin-IIIa (Homo sapiens) (UniProt Q8NEV4). The conditions noted are these: Compound concentration 1000.0 nM.
Series [3] concerns the target Dual specificity protein kinase CLK1 (Homo sapiens) (UniProt P49759). The conditions noted are these: Compound concentration 1000.0 nM.
For series [4], the target named is Tyrosine-protein kinase Yes (Homo sapiens) (UniProt P07947). The conditions noted are these: Compound concentration 1000.0 nM.
The target in series [5] is Activin receptor type-2B (Homo sapiens) (UniProt Q13705). The conditions noted are these: Compound concentration 1000.0 nM.
Series [6] has as its target LIM domain kinase 2 (Homo sapiens) (UniProt P53671). The conditions noted are these: Compound concentration 1000.0 nM.
Series [7] addresses Activin receptor type-1 (Homo sapiens) (UniProt Q04771). The conditions noted are these: Compound concentration 1000.0 nM.
Series [8] deals with Mast/stem cell growth factor receptor Kit (Homo sapiens) (UniProt P10721). The conditions noted are these: Compound concentration 1000.0 nM.
Series [9] has as its target Serine/threonine-protein kinase TAO2 (Homo sapiens) (UniProt Q9UL54). The conditions noted are these: Compound concentration 1000.0 nM.
The target in series [10] is Mitogen-activated protein kinase kinase kinase 9 (Homo sapiens) (UniProt P80192). The conditions noted are these: Compound concentration 1000.0 nM.
For series [11], the system named is Tyrosine-protein kinase ABL1 (Homo sapiens), P00519 [F317L]. The conditions noted are these: Compound concentration 1000.0 nM.
In series [12] the target is Serine/threonine-protein kinase ULK3 (Homo sapiens) (UniProt Q6PHR2). The conditions noted are these: Compound concentration 1000.0 nM.
For series [13], the target named is Insulin receptor-related protein (Homo sapiens) (UniProt P14616). The conditions noted are these: Compound concentration 1000.0 nM.
Series [14] addresses MAP kinase-interacting serine/threonine-protein kinase 2 (Homo sapiens) (UniProt Q9HBH9). The conditions noted are these: Compound concentration 1000.0 nM.
The target in series [15] is Serine/threonine-protein kinase Nek10 (Homo sapiens) (UniProt Q6ZWH5). The conditions noted are these: Compound concentration 1000.0 nM.
Series [16] has as its target Interferon-induced, double-stranded RNA-activated protein kinase (Homo sapiens) (UniProt P19525). The conditions noted are these: Compound concentration 1000.0 nM.
The target of series [17] is Rhodopsin kinase GRK7 (Homo sapiens) (UniProt Q8WTQ7). The conditions noted are these: Compound concentration 1000.0 nM.
Series [18] deals with SRSF protein kinase 2 (Homo sapiens) (UniProt P78362). The conditions noted are these: Compound concentration 1000.0 nM.
Series [19] concerns the target Serine/threonine-protein kinase ICK (Homo sapiens) (UniProt Q9UPZ9). The conditions noted are these: Compound concentration 1000.0 nM.
Series [20] has as its target Dual specificity mitogen-activated protein kinase kinase 1 (Homo sapiens) (UniProt Q02750). The conditions noted are these: Compound concentration 1000.0 nM.
The target in series [21] is Tyrosine-protein kinase Srms (Homo sapiens) (UniProt Q9H3Y6). The conditions noted are these: Compound concentration 1000.0 nM.
Series [22] deals with Serine/threonine-protein kinase D2 (Homo sapiens) (UniProt Q9BZL6). The conditions noted are these: Compound concentration 1000.0 nM.
The target in series [23] is Neuropeptide Y receptor type 1 (Homo sapiens) (UniProt P25929). The series can be described thus: Inhibition of Neuropeptide Y Y1 at 10 µM in the Eurofins-Panlabs radioligand binding assay (Eurofins_assay_257010). The conditions noted are these: Compound concentration 10.0 uM.
In series [24] the target is T1, Muscarinic acetylcholine receptor M1 (Homo sapiens) (UniProt P11229).
T1 sequence (whole entry): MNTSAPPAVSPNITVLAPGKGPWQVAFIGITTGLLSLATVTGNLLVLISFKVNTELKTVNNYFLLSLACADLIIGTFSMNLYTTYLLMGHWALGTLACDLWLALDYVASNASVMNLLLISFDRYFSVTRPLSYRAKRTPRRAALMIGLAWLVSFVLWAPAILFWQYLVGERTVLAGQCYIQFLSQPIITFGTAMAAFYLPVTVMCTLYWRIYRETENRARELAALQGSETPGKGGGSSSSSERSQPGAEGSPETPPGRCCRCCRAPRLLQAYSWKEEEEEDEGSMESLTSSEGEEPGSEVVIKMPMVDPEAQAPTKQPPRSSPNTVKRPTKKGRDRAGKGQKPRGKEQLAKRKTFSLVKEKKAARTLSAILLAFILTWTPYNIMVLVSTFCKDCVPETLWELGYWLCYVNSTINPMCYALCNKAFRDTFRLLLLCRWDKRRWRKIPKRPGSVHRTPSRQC
The conditions noted are these: Compound concentration 10.0 uM.

The target of series [25] is Epidermal growth factor receptor (Homo sapiens) (UniProt P00533). The series can be described thus: Inhibition of Epidermal Growth Factor (EGF) at 10 µM in the Eurofins-Panlabs radioligand binding assay (Eurofins_assay_225510). The conditions noted are these: Compound concentration 10.0 uM.
In series [26] the target is Serine/threonine-protein kinase PAK 5 (Homo sapiens) (UniProt Q9P286). Briefly: PAK5 (h) Millipore kinase activity assay. The conditions noted are these: Compound concentration 1.0 uM.
Series [27] has as its target Serine/threonine-protein kinase Nek3 (Homo sapiens) (UniProt P51956). The series can be described thus: NEK3 (h) Millipore kinase activity assay. The conditions noted are these: Compound concentration 1.0 uM.
Series [28] addresses L-type calcium channel, dihydropyridine site (Cav1.2 alpha-1C) (Homo sapiens, UniProt Q13936). Briefly: Inhibition of Calcium Channel L-Type, Dihydropyridine at 10 µM in the Eurofins-Panlabs radioligand binding assay (Eurofins_assay_214600). More on the design: ligand concentration 0.1 nM, non-specific ligand with concentration 1 µM Nitrendipine, incubation time 90 min, incubation temperature 25 °C. The conditions noted are these: Wistar, rat, rat cerebral cortex preparation, probe [3H] Nitrendipine; compound concentration 10 uM; target entry is the homologue from another species.

The target in series [29] is Gamma-aminobutyric acid type B receptor subunit 1 (Homo sapiens) (UniProt Q9UBS5). The series can be described thus: Inhibition of GABAB1A at compound concentration of 10.0 uM in the Eurofins-Panlabs radioligand binding assay (Eurofins_assay_228610). Also noted: ligand concentration 4 nM. The conditions noted are these: Compound concentration 10.0 uM.
In series [30] the target is Phosphorylase b kinase gamma catalytic chain, liver/testis isoform (Homo sapiens) (UniProt P15735). The series can be described thus: PhKgamma2 (h) Millipore kinase activity assay. The conditions noted are these: Compound concentration 1.0 uM.
For series [31], the target named is Myosin light chain kinase (Homo sapiens) (UniProt Q32MK0). The series can be described thus: MLCK (h) Millipore kinase activity assay. The conditions noted are these: Compound concentration 1.0 uM.
In series [32] the target is Tyrosine-protein kinase SYK (Homo sapiens) (UniProt P43405). Briefly: Syk (h) Millipore kinase activity assay. The conditions noted are these: Compound concentration 1.0 uM.
The target in series [33] is Tyrosine-protein kinase JAK3 (Homo sapiens) (UniProt P52333). Briefly: JAK3 (h) Millipore kinase activity assay. The conditions noted are these: Compound concentration 1.0 uM.
Series [34] deals with Serine/threonine-protein kinase D2 (Homo sapiens) (UniProt Q9BZL6). Briefly: PKD2 (h) Millipore kinase activity assay. The conditions noted are these: Compound concentration 1.0 uM.
For series [35], the target named is Serine/threonine-protein kinase WNK3 (Homo sapiens) (UniProt Q9BYP7). Briefly: WNK3 (h) Millipore kinase activity assay. The conditions noted are these: Compound concentration 1.0 uM.

Chain of Serine/threonine-protein kinase D2 (Homo sapiens) (Q9BZL6 whole entry): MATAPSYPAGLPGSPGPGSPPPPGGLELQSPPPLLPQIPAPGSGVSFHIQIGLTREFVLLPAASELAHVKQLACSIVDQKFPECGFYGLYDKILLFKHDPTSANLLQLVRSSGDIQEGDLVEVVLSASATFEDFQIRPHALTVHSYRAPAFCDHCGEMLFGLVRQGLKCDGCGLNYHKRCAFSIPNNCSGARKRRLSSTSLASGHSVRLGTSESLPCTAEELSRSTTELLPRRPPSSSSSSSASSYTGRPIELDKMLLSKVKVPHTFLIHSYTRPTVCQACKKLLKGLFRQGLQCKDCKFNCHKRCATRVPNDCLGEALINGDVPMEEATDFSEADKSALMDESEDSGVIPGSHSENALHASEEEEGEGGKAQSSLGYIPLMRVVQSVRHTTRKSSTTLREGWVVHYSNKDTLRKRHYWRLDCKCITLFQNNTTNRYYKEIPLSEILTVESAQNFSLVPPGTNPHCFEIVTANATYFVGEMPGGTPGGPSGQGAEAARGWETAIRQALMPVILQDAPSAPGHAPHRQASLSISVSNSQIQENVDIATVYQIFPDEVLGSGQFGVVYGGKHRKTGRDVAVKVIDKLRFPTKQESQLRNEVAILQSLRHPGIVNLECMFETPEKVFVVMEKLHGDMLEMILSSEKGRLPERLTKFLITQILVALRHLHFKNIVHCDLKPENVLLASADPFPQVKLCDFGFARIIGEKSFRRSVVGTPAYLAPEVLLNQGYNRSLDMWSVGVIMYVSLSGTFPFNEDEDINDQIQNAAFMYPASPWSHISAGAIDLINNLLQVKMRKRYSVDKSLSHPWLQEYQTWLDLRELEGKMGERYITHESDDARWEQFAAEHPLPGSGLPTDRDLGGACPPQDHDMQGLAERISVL
Chain of L-type calcium channel, dihydropyridine site (Cav1.2 alpha-1C) (Q13936 whole entry): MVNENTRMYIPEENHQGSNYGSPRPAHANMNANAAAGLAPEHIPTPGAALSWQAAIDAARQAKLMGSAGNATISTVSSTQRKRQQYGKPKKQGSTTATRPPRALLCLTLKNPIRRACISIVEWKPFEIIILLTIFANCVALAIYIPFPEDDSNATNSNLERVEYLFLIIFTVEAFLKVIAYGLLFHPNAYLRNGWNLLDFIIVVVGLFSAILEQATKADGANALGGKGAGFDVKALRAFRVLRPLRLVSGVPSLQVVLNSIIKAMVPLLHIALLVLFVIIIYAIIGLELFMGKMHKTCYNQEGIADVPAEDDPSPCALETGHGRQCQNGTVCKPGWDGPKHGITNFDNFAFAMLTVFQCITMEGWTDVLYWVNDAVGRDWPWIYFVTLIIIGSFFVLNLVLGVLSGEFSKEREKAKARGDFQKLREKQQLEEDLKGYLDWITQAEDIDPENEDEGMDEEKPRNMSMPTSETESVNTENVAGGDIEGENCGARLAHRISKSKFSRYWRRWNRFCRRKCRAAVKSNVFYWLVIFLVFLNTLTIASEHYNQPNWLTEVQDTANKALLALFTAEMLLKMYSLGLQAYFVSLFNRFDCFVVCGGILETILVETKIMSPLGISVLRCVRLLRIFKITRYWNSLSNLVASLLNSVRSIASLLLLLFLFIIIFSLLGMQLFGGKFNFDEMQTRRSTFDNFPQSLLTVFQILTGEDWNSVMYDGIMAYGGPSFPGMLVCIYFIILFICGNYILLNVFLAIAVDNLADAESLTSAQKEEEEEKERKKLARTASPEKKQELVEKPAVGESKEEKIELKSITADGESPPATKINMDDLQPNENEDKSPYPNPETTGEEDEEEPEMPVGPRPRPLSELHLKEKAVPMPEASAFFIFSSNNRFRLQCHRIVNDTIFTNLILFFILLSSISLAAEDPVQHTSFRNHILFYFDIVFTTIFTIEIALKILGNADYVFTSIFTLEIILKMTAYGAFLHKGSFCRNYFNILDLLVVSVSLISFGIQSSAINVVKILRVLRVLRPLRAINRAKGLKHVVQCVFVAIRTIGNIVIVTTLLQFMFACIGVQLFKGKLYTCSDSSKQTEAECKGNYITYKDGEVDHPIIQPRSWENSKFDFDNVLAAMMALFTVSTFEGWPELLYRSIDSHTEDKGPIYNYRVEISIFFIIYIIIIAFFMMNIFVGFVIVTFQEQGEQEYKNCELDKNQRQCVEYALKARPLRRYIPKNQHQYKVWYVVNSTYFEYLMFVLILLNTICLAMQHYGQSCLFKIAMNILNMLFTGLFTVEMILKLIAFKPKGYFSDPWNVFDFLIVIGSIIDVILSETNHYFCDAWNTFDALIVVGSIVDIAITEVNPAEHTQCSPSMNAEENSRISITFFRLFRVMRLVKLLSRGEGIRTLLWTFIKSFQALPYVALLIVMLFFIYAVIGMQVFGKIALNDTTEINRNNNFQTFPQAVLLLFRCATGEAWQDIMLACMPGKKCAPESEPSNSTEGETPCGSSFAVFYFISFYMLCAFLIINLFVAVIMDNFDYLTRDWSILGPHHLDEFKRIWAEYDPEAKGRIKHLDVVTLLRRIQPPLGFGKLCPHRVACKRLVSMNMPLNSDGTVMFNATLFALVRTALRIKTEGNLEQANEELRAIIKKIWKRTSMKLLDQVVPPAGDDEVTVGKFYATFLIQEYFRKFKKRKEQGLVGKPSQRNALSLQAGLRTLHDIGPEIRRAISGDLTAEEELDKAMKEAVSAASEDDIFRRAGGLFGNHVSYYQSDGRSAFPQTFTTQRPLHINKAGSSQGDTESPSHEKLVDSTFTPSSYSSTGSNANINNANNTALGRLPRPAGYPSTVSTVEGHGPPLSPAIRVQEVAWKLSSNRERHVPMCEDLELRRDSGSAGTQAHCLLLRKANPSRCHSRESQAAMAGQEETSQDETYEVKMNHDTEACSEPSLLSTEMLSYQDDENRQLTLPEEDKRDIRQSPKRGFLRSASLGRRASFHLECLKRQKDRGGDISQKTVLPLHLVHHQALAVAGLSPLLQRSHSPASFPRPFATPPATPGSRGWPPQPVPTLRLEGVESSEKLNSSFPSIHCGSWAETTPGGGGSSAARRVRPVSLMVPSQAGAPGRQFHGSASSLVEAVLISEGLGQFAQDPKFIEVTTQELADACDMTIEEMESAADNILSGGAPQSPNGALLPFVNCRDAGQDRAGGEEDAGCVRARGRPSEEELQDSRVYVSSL
Chain of Serine/threonine-protein kinase Nek3 (Homo sapiens) (P51956 whole entry): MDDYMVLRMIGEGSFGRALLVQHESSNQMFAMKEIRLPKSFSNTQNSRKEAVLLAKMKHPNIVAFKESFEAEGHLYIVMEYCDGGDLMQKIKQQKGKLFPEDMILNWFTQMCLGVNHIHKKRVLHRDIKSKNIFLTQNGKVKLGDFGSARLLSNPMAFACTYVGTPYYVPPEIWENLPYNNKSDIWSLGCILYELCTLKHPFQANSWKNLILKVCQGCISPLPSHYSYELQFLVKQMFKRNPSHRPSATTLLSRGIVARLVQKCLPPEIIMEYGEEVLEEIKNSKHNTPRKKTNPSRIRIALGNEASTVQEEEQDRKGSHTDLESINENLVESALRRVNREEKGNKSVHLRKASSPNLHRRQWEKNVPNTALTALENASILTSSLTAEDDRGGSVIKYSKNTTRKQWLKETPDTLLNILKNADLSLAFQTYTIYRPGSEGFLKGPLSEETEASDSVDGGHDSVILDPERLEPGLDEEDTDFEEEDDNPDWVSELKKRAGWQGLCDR
Chain of Epidermal growth factor receptor (Homo sapiens) (P00533 whole entry): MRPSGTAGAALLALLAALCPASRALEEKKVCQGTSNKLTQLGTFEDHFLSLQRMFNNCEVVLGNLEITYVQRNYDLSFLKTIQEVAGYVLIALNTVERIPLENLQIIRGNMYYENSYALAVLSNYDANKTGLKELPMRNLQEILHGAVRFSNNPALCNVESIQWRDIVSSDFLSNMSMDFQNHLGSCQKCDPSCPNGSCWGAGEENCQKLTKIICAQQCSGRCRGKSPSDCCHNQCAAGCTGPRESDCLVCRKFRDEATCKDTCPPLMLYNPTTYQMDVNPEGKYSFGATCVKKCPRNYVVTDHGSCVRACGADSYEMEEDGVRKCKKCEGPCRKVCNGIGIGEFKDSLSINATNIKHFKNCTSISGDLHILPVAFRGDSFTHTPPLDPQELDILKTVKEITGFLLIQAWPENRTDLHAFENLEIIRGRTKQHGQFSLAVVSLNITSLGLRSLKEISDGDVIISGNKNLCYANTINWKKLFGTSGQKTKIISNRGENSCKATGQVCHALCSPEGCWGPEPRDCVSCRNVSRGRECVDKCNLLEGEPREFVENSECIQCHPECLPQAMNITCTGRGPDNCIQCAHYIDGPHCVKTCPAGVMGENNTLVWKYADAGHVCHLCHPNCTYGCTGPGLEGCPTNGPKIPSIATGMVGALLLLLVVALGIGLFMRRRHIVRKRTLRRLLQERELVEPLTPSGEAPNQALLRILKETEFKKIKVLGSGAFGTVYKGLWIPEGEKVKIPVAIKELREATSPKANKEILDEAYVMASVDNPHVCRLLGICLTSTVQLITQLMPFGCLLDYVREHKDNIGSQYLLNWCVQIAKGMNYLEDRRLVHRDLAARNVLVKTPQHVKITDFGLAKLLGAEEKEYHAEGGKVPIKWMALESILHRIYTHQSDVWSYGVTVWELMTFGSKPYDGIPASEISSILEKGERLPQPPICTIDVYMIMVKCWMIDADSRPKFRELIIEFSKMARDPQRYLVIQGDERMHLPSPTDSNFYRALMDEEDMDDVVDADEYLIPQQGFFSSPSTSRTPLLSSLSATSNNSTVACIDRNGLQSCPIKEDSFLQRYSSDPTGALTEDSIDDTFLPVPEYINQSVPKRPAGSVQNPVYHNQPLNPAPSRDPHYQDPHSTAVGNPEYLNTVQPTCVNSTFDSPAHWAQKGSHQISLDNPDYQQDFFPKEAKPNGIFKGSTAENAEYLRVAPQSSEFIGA

In the case of `CC1=C(C#N)[C@@H](c2ccc3[nH]nc(C)c3c2)C(C#N)=C(c2ccc(Cl)cc2)N1` [BAY-827], the residual activity was 100% in [1]; 100% in [2]; 100% in series [3]; 100% in series [4]; 100% in series [5]; 91.1% in series [6]. In addition, the residual activity in series [7] was 100%; in series [8], 95.4%; in series [9], 100%; in series [10], 90.4%; in [11] it was 94.2%; in series [12] it was 88.3%. In addition, the residual activity is 100% in series [13]; 90.6% in [14]; 59.6% in series [15]; 74.1% in [16]; 100% in series [17]; 100% in series [18]. Further, the residual activity is 76.2% in series [19], 100% in [20], 92.7% in [21] and 100% in series [22].
`CC1=C(C#N)C(c2ccc3[nH]nc(C)c3c2)C(C#N)=C(C)N1` [BAY-474]: the inhibition in [23] was 1%; in series [24], 0%; in [25], 7%; in [26], -4%; in series [27], -9%; in series [29] it was 0%. The inhibition in series [30] was -10%; in series [31], 9%; in series [32], 8%; in series [33] it was -7%; in series [34], 3%; in series [35] it was -5%. Further, the inhibition at 90 min, 10 µM in [28] is on record as 0% (not active).
